Assay: Solubility of GSD in the active-ingredient-containing matrix
Type: physicochemical

- Solubility in the active-ingredient-containing matrix: ca. 2%
Structure (SMILES): C#C[C@]1(O)C=C[C@H]2[C@@H]3CCC4=CC(=O)CC[C@@H]4[C@H]3CC[C@@]21CC [GSD, gestodene]

— patent US9060955B2, “Transdermal therapeutic system with crystallization-inhibiting protective film (release liner)” (Bayer Intellectual Property GmbH, priority 2010, dated 2015)
